Key:
[1] = molecular target: T1, DBH (Homo sapiens, UniProt P09172); settings: literature reports; cited from earlier work
T1 sequence (P09172 1-617): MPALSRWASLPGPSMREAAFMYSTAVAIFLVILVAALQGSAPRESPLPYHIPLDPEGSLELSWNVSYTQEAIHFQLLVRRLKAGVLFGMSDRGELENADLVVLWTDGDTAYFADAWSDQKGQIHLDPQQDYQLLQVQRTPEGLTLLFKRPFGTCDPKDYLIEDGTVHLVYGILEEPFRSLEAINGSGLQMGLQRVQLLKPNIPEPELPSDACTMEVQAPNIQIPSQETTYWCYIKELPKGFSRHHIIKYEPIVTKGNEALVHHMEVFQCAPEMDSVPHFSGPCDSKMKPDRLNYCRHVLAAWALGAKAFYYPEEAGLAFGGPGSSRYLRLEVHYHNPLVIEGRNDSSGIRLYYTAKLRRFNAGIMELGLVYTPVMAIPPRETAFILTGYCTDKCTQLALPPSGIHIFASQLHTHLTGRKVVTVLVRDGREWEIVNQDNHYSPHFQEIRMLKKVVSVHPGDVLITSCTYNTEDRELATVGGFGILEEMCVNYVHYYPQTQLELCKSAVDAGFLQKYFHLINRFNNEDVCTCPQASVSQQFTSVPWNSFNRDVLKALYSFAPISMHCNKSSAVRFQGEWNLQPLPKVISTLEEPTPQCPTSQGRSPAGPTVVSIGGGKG

[2] = test system: spontaneously hypertensive rats; assay: mean arterial blood pressure in spontaneously hypertensive rats; assay type: in vivo; settings: 50 mg/kg intraperitoneally, vs vehicle-treated controls
Protocol: Further, spontaneously hypertensive rats were treated with the compound in Table I at a dose of 50 mg/kg intraperitoneally, and mean arterial blood pressure was monitored for 260 minutes using indwelling cannulae in the tail arteries. […] The maximal blood pressure reduction was approximately 25 mmHg.

[3] = molecular target: T2, DBH (Bos taurus, UniProt P15101); assay: in vitro DBH inhibition, conversion of tyramine to octopamine; assay type: biochemical; settings: molar concentration of compound at which DBH activity was halved; octopamine assayed as p-hydroxybenzaldehyde at 330 nm
T2 sequence (P15101 1-610): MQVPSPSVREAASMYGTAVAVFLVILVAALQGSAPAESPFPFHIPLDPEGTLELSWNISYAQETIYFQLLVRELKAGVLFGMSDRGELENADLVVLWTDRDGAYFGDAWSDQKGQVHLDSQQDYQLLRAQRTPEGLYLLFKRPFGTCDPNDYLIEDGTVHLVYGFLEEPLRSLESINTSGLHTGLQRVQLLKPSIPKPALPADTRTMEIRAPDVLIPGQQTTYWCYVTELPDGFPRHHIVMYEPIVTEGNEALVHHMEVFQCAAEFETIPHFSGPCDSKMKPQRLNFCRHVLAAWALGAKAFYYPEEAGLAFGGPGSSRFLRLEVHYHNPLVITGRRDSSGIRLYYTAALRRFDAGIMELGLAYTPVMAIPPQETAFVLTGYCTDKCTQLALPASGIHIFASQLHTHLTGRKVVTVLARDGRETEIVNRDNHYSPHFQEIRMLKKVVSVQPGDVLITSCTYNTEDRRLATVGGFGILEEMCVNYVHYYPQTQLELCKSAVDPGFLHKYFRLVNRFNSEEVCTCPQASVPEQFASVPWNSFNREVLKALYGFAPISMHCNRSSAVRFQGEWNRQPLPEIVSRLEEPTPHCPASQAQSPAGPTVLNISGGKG
Protocol: Listed in Table I is the compound of the invention that was tested for in vitro DBH inhibition by a standard procedure for assaying conversion of tyramine to octopamine in the presence of DBH. J. J. Pisano, et al., Biochim. Biophys. Acta, 43, 566-568 (1960). Octopamine was assayed following sodium periodate oxidation to p-hydroxybenzaldehyde by measuring spectrophotometric absorbance at 330 nm. In Table I, inhibition is given in molar concentration of compound at which DBH activity was halved (IC50). Fusaric acid, by this test has an IC50 of 8×10^-7 M.

[4] = Teresawa et al., 1971; cited from earlier work
[5] = Ehrreich et al., 1976; cited from earlier work

CN(C)C(=S)SCc1ccc(C(=O)O)nc1 [5-(dimethyldithiocarbamoylmethyl)picolinic acid]
DBH inhibition (in words) [1]: DBH inhibitors

O=C(O)c1ccc(CCC(Br)CBr)cn1 (stereo not drawn) [5-(3,4-dibromobutyl)picolinic acid]
DBH inhibition (in words) [1]: DBH inhibitors

CN1CCN(Cc2cnc(S)n2Cc2cc(F)cc(F)c2)CC1 [Example 1, 1-(3,5-Difluorobenzyl)-5-[(4-methyl-1-piperazinyl)methyl]-2-mercaptoimidazole]
maximal blood pressure reduction ([2]; mean arterial blood pressure monitored for 260 minutes): approximately 25 mmHg | time to significant blood pressure reductions following treatment [2]: ≤ 30 min | blood pressure effect ([2]; within 30 minutes): significant blood pressure reductions | IC50 [3]: 590 µM

NNCc1ccccc1 [benzylhydrazine]
DBH inhibition (in words) [1]: competitive inhibitors

CCCCc1ccc(C(=O)O)nc1 [Fusaric acid]
hepatotoxicity [4]: hepatotoxic

O=C(O)c1ccc(CCCCCl)cn1 [5-(4-chlorobutyl) picolinic acid]
DBH inhibition (in words) [1]: inhibit DBH

CCCCc1ccc(C(N)=O)nc1 [Bupicomide, 5-(n-butyl)picolinamine]
DBH inhibition (in words) [1]: DBH inhibitor | antihypertensive activity [5]: antihypertensive activity

NOCc1ccccc1 [Benzyloxyamine]
DBH inhibition (in words) [1]: competitive inhibitors

Reference: patent US4835154A, “1-aralykyl-5-piperazinylmethyl-2-mercaptoimidazoles and 2-alkylthioimidazoles and their use as dopamine-βhydroxylase inhibitors” (SmithKline Beckman Corporation, priority 1987, dated 1989)
